Data published in publication PMC3267170, “Pharmacological Modulation of Diacylglycerol-Sensitive TRPC3/6/7 Channels” (Current Pharmaceutical Biotechnology, 2011).
Where two headings read alike, the source gives them in different places. Blank lines part the entries; values can stand above or below the compound they belong to.

Columns and labels:
TRPC6 [1] = molecular target: T1, TRPC6 (Homo sapiens, UniProt Q9Y210); assay: FLIPR calcium entry in TRPC6-expressing cells stimulated by hyperforin; assay type: cell-based; details: read-out: IC50, hyperforin-induced TRPC6-mediated calcium entry (Fig. 3)
T1 construct: expressed in transfected cells
T1 sequence (Q9Y210 1-931): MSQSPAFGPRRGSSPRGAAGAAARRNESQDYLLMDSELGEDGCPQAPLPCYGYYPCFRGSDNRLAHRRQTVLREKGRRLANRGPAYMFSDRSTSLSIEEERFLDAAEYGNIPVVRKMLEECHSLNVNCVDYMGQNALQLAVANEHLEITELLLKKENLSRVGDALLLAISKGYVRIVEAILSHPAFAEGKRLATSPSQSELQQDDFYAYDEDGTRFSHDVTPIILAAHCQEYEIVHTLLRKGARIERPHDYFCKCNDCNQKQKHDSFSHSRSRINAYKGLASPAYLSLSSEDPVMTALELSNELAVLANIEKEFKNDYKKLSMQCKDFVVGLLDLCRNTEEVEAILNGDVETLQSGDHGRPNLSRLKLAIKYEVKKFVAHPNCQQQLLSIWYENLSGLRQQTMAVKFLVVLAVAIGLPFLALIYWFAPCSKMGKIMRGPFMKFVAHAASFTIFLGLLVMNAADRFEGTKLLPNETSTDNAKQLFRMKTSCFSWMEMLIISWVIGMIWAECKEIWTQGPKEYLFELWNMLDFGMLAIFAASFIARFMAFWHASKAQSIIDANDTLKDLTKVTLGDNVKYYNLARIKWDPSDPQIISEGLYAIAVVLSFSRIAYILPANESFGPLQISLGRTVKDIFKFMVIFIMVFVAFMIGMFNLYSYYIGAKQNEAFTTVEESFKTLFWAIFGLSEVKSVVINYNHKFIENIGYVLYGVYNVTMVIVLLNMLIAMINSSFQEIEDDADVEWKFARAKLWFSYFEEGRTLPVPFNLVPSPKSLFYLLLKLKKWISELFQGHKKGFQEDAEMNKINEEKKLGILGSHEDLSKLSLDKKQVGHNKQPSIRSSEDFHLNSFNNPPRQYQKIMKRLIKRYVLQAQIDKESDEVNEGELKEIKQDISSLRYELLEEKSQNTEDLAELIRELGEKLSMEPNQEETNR
Description: (§1) Using this approach, we tested several other structurally related compounds to get a first view on the structure-function relationships of TRPC6.
A) The chemical structures of the tested compound is shown. […] Calcium entry was measured using FLIPR^Tetra and data analysed as described in Jörs et al.. The data were calculated from one experiment of at least three experiments performed in quadruplicates per concentration and TRP channel.
(§2) Calcium entry was measured using FLIPR^Tetra and data analysed as described in Jörs et al.. The data were calculated from one experiment of at least three experiments performed in quadruplicates per concentration and TRP channel.

TRPC6 [2] = molecular target: T1, TRPC6; set-up: method as in earlier work; details: 100 µM SKF-96365; ref 12 (Boulay et al.); cited from earlier work
TRPC3 [3] = test system: TRPC3; set-up: method as in PMID 12700192; details: 100 µM; human myometrial cells; cited from earlier work
[4] = molecular target: receptor-mediated calcium entry; set-up: method as in PMID 2173565; details: platelets, neutrophils and endothelial cells; read-out: IC50, block of ADP-induced calcium entry; cited from earlier work
TRPV4 = molecular target: T2, TRPV4 (Homo sapiens, UniProt Q9HBA0); assay: FLIPR calcium entry in TRPV4-expressing cells stimulated by 4α-phorbol-didecanoate; assay type: cell-based; details: fluo-4-loaded cells, 4α-phorbol-didecanoate (5 µM), FLIPR Tetra; read-out: IC50 to block TRPV4
T2 construct: expressed in transfected cells
Description: as §1, §2

TRPM3 = molecular target: T3, TRPM3 (Homo sapiens, UniProt Q9HCF6); assay: FLIPR calcium entry in TRPM3-expressing cells stimulated by pregnenolone sulphate; assay type: cell-based; details: fluo-4-loaded cells, pregnenolone sulphate (35 µM), FLIPR Tetra; read-out: IC50 to block TRPM3
T3 construct: expressed in transfected cells
Description: as §1, §2

Drosophila TRPγ = molecular target: T4, Drosophila TRPγ (Drosophila melanogaster, UniProt Q9VJJ7); assay: FLIPR calcium entry in TRPγ-expressing cells stimulated by eicosatetraynoic acid; assay type: cell-based; details: fluo-4-loaded cells, eicosatetraynoic acid (20 µM), FLIPR Tetra; read-out: IC50 to block Drosophila TRPγ
T4 construct: expressed in transfected cells
T4 sequence (Q9VJJ7 1-1128): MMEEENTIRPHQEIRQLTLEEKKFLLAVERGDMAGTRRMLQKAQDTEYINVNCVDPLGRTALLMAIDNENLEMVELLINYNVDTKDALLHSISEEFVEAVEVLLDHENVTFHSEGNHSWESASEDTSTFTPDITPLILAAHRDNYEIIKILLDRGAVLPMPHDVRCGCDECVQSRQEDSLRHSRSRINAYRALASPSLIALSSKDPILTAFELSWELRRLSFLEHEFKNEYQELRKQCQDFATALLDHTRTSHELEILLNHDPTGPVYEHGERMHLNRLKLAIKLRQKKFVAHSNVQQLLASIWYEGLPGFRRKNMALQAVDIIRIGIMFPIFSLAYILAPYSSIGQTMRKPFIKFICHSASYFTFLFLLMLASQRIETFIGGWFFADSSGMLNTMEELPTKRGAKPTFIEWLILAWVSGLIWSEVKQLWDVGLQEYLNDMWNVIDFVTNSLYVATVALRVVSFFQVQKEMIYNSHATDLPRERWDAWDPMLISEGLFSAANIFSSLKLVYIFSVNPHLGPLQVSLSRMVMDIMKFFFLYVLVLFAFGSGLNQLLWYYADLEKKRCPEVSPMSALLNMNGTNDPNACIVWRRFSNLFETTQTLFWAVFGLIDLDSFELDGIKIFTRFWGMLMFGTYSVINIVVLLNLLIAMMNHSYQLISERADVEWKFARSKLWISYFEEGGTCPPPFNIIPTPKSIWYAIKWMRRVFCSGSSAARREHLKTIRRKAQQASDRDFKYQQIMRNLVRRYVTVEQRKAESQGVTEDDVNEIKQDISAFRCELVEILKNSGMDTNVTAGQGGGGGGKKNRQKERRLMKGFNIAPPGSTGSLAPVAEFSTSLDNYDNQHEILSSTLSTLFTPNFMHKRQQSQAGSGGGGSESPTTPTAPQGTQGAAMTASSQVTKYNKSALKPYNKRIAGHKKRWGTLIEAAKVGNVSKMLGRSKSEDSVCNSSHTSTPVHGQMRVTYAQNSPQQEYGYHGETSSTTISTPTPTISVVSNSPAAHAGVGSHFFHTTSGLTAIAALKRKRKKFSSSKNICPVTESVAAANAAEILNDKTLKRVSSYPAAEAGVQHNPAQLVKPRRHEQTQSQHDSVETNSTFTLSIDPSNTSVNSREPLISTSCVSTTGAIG
Description: as §1, §2

TRPC6 [5] = molecular target: T1, TRPC6; set-up: method as in PMID 9368034, PMID 10970899; details: read-out: concentration needed to block TRPC6; cited from earlier work
TRPC3 [6] = test system: TRPC3; set-up: method as in PMID 9368034, PMID 10970899; details: read-out: half-maximal concentration necessary for TRPC3 inhibition; cited from earlier work

T3 sequence (Q9HCF6 whole entry, species assumed): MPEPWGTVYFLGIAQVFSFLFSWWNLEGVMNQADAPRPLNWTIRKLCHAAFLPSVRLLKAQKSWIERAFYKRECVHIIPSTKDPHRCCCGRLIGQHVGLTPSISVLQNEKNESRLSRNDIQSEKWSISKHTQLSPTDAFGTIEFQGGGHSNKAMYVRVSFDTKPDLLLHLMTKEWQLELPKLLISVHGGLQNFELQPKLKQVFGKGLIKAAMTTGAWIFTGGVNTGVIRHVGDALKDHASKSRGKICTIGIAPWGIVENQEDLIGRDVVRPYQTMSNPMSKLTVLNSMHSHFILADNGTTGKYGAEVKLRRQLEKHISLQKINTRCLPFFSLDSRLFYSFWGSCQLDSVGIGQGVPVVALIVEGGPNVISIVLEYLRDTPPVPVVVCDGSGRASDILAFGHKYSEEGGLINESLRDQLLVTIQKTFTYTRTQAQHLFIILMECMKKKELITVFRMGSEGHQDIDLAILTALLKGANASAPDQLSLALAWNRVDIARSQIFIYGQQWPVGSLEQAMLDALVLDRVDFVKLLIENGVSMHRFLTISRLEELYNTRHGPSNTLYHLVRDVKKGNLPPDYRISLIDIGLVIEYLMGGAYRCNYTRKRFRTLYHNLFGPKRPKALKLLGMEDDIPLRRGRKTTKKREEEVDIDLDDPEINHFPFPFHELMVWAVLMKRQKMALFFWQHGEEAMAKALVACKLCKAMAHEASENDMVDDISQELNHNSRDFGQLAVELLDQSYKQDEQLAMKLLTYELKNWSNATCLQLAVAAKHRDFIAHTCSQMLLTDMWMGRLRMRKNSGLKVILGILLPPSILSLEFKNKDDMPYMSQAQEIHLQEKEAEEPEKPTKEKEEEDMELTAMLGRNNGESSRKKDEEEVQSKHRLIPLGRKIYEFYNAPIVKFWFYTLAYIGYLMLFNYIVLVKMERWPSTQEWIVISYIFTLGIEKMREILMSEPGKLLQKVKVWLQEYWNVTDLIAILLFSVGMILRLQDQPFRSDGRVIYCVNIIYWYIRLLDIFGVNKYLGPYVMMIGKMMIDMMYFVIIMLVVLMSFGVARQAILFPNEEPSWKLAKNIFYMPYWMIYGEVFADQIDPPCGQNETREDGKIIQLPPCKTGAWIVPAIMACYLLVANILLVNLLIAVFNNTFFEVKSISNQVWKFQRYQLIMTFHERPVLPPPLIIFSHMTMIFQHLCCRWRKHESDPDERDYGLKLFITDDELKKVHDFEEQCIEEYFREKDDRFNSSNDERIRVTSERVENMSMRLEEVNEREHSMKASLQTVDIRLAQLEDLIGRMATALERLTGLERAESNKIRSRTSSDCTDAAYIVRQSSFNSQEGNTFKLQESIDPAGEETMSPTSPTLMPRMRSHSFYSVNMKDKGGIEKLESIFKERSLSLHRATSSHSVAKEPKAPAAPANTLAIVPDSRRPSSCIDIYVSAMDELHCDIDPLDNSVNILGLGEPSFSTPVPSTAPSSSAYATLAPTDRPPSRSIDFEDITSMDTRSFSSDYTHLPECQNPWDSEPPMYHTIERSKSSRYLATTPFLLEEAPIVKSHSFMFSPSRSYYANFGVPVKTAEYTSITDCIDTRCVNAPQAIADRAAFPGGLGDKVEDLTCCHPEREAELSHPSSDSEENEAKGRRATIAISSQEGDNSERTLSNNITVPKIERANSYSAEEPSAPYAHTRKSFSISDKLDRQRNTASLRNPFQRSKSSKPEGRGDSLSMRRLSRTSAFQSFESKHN
T2 sequence (Q9HBA0 whole entry, species assumed): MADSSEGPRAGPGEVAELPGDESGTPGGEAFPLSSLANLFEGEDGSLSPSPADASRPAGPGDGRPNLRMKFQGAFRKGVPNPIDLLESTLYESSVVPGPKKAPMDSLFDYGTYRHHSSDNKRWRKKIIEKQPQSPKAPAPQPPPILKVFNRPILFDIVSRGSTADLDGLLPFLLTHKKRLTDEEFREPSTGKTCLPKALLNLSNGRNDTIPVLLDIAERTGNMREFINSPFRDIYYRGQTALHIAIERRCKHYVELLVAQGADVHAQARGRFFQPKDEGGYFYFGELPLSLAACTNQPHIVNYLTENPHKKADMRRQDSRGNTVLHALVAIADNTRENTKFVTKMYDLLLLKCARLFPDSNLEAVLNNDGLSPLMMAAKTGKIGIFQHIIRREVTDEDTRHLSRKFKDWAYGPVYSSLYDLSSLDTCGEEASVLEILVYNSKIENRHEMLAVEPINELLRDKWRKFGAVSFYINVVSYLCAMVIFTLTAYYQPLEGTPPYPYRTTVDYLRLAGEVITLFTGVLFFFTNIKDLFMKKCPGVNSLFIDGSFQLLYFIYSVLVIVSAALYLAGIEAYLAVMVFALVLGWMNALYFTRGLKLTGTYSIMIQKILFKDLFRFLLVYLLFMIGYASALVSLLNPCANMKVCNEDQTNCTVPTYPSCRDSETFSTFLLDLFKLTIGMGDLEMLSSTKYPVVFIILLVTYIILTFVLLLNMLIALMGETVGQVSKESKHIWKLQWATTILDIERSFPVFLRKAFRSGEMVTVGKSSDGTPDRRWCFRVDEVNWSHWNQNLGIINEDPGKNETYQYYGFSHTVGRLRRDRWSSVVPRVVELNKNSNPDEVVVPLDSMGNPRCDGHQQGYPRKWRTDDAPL

SMILES: NCCCCCCCCNS(=O)(=O)c1cccc2c(I)cccc12 [J-8, (N-8-Aminooctyl)-5-iodo-1-naphthalenesulfonamide]
IC50 (TRPC6 [1]): 85 µM

SMILES: O=S(=O)(c1cccc2c(Cl)cccc12)N1CCCNCC1 [ML-9, 1-(5-Chloronaphthalene-1-sulfonyl)-1H-hexahydro-1,4-diazepine]
IC50 (TRPC6 [1]): 36 µM

SMILES: COc1ccc(CCCOC(Cn2ccnc2)c2ccc(OC)cc2)cc1.Cl (stereo not drawn) [SKF-96365, 1-{β[3-(4-methoxyphenyl)propoxy]-4-methoxyphenethyl}-1H-imidazole hydrochloride]
block of heterologously expressed TRPC6 (TRPC6 [2]): complete block
block of endogenously expressed TRPC3 (TRPC3 [3]): effective in blocking
IC50 [4]: ~10 µM

SMILES: NCCCCCCNS(=O)(=O)c1cccc2ccccc12 [W-5, N-(6-Aminohexyl)-1-naphthalenesulfonamide]
IC50 (TRPC6 [1]): 20 µM

SMILES: [Cl][La]([Cl])[Cl] [lanthanum chloride]
IC50 (TRPC6 [5]): > 50 µM
IC50 (TRPC3 [6]): 4 µM

Now from value to compound:

IC50 (TRPC6 [1]): 29 µM
SMILES: NCCCCCCCCCCNS(=O)(=O)c1cccc2c(Cl)cccc12 [W-7 decyl]

IC50 (TRPC6 [1]): 35 µM
SMILES: NCCCCCCNS(=O)(=O)c1ccc2c(Cl)cccc2c1 [W-7 isomer, N-(6-Aminohexyl)-5-chloro-2-naphthalenesulfonamide]

IC50 (TRPV4): 65 µM
IC50 (TRPM3): 15 µM
IC50 (Drosophila TRPγ): 5 µM
SMILES: NCCCCCCNS(=O)(=O)c1cccc2c(Cl)cccc12 [W-7, N-(6-Aminohexyl)-5-chloro-1-naphthalenesulfonamide]
